Key:
Mouse B16 melanoma cells [1] = assay: Cell proliferation test (alamar blue); format: cell-based; conditions: for No. of Cells (%): 3 days, solvent-only group = 100
Description: As will be described in detail in the subsequent examples, screening for aromatic components of the melanin formation inhibitor was carried out by allowing various candidate aromatics to act on B16 melanoma, and evaluating cytotoxicity and the ratio of the amount of melanin (%) in comparison with a control (addition of solvent only). Mouse B16 melanoma cells were disseminated in a 6-well plate at 100,000 cells/well. On the following day, a test substance solution (solvent: ethyl alcohol) was added and used in a cell proliferation test and melanin formation inhibition test. A nature identical synthetic aromatic in the form of phenylethyl cinnamate (Toyotama International Inc.) was used for the test substance, and it was used in the tests indicated below. After aspirating off the medium 3 days after adding the test substance solution, 1 ml of EMEM medium containing 10% alamar blue solution was added and allowed to react at 37° C. 30 minutes later, 100 μl were transferred to a […] followed by measurement of fluorescence at an excitation wavelength of 544 nm and measurement wavelength of 590 nm. The ratio of the number of cells (% number of cells) of a test substance addition group based on a value of 100 for a test substance non-addition group (addition of solvent only) was calculated by using that value as a relative value of the number of viable cells. A higher value for % number of cells means a lower level of cytotoxicity.

Mouse B16 melanoma cells [2] = assay: Melanin formation inhibition test; format: cell-based; conditions: for Ratio of Amount of Melanin (%): 3 days, solvent-only group = 100
Description: As will be described in detail in the subsequent examples, screening for aromatic components of the melanin formation inhibitor was carried out by allowing various candidate aromatics to act on B16 melanoma, and evaluating cytotoxicity and the ratio of the amount of melanin (%) in comparison with a control (addition of solvent only). Mouse B16 melanoma cells were disseminated in a 6-well plate at 100,000 cells/well. On the following day, a test substance solution (solvent: ethyl alcohol) was added and used in a cell proliferation test and melanin formation inhibition test. A nature identical synthetic aromatic in the form of phenylethyl cinnamate (Toyotama International Inc.) was used for the test substance, and it was used in the tests indicated below. The medium was aspirated off 3 days after addition of test substance, and after washing using a buffer (50 mM phosphate buffer, pH 6.8), 1 M NaOH solution was added to lyse the cells followed by measurement of absorbance at 475 nm. The ratio of the amount of melanin (%) of a test substance addition group based on a value of 100 for a test substance non-addition group (addition of solvent only) was calculated using that value as a relative value of the amount of melanin. A lower value for the ratio of the amount of melanin means higher melanin formation inhibitory effects.

[3] = test substance final concentration 1 ppm
[4] = test substance final concentration 2 ppm

## O=C(/C=C/c1ccccc1)OCCc1ccccc1 [Phenylethyl Cinnamate, 2-Phenylethyl 3-phenyl • propenoate]
Mouse B16 melanoma cells [1]; summary of Table 1 results
  cytotoxicity (in words): hardly any cytotoxicity
Mouse B16 melanoma cells [1]; [3]
  No. of Cells (%): 94%
Mouse B16 melanoma cells [1]; [4]
  No. of Cells (%): 92%
Mouse B16 melanoma cells [2]; summary of Table 1 results
  melanin formation inhibitory effects (in words): superior melanin formation inhibitory effects
Mouse B16 melanoma cells [2]; [3]
  Ratio of Amount of Melanin (%): 82%
Mouse B16 melanoma cells [2]; [4]
  Ratio of Amount of Melanin (%): 74%

Reference: patent US9278058B2, “Melanin production inhibitor” (Shiseido Company, Ltd., priority 2012, dated 2016)
